According to patent publication US20260216347A1, “Substituted Imidazo-Based Compounds as Ligand Directed Degraders of IRAK3” (Celgene Corporation, priority 2022, published 2026):

Molecular target: T1, IRAK3 (Homo sapiens, UniProt Q9Y616)
T1 construct: IRAK Endogenous HTRF Degradation Assay; endogenous in cells
T1 sequence (Q9Y616 1-596): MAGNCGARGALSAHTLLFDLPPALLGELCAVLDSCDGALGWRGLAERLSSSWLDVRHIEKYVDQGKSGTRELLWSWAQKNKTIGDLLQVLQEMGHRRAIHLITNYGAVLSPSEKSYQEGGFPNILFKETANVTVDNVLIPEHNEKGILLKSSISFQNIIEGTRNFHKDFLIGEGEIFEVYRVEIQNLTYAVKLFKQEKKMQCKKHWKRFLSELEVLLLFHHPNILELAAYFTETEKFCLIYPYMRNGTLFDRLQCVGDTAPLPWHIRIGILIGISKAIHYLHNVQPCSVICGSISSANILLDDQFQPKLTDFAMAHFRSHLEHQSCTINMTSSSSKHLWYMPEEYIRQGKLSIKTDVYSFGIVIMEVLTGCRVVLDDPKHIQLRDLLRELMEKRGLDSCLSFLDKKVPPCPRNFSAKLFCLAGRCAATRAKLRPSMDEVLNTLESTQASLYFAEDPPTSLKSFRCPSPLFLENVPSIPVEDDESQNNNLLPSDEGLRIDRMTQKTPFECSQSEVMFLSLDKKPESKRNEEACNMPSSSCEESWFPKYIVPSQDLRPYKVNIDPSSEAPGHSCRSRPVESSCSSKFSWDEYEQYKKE
Assay: IRAK3 biochemical binding assay (LanthaScreen Eu Kinase Binding, TR-FRET)
Summary of the method: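 TR-FRET tracer-displacement binding with 10 nM IRAK3, 2 nM Eu-anti-GST antibody and 10 nM tracer in 50 mM HEPES pH 7.4, MgCl2, 1 mM EGTA, 0.01% Brij-35. Compounds in 3-fold dilutions, 1 h at room temperature. 665/615 nm ratio gave % inhibition; IC50 and Hill slope from dose-response fit.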

SMILES | IC50
Cc1cc(-c2cnc(Nc3cnn(C4CCN(CC(=O)N5CCN(c6ccc(C7CCC(=O)NC7=O)cc6)CC5)CC4)c3)c3nccn23)c(F)cc1F (stereo not drawn) [Compound 17, 3-(4-(4-(2-(4-(4-((5-(2,4-difluoro-5-methylphenyl)imidazo[1,2-a]pyrazin-8-yl)amino)-1H-pyrazol-1-yl)piperidin-1-yl)acetyl)piperazin-1-yl)phenyl)piperidine-2,6-dione] | 1.3 nM
Cc1cc(-c2cnc(Nc3cnn(C4CCN(CCN5CCN(c6ccc(C7CCC(=O)NC7=O)cc6)C[C@H]5C)CC4)c3)c3nccn23)c(F)cc1F (stereo partly drawn) [Compound 9, 3-(4-((R)-4-(2-(4-(4-((5-(2,4-difluoro-5-methylphenyl)imdazo [1,2-a]pyrazin-8-yl)amino)-1H-pyrazol-1-yl)piperidin-1-yl)ethyl)-3-methylpiperazin-1-yl)phenyl) piperidine-2,6-dione] | 1.1 nM
Cc1cccc(-c2cnc(Nc3cnn(C4CCN(CC(=O)N5CCN(c6ccc7c(c6)CN(C6CCC(=O)NC6=O)C7=O)CC5)CC4)c3)c3nccn23)c1 (stereo not drawn) [Compound 19, 3-(1-oxo-5-(4-(2-(4-(4-((5-(m-tolyl)imidazo[1,2-a]pyrazin-8-yl)amino)-1H-pyrazol-1-yl)piperidin-1-yl)acetyl)piperazin-1-yl)isoindolin-2-yl)piperidine-2,6-dione] | 1.8 nM
Cc1cc(-c2cnc(Nc3cnn(C4CCN(CCN5CCN(c6ccc(C7CCC(=O)NC7=O)cc6)CC5)CC4)c3)c3nccn23)c(F)cc1F (stereo not drawn) [Compound 8, 3-(4-(4-(2-(4-(4-((5-(2,4-difluoro-5-methylphenyl)imidazo[1,2-a]pyrazin-8-yl)amino)-1H-pyrazol-1-yl)piperidin-1-yl)ethyl)piperazin-1-yl)phenyl)piperidine-2,6-dione] | 1.3 nM

Further lines, results first:

IC50 | SMILES
14 nM | O=C1CCC(c2ccc(N3CCN(CCN4CCC(n5cc(Nc6ncc(-c7ccccc7F)n7ccnc67)cn5)CC4)CC3)cc2)C(=O)N1 (stereo not drawn) [Compound 75, 3-(4-(4-(2-(4-(4-((5-(2-fluorophenyl)imidazo [1,2-a]pyrazin-8-yl)amino)-1H-pyrazol-1-yl)piperidin-1-yl)ethyl)piperazin-1-yl)phenyl) piperidine-2,6-dione]
0.65 nM | Cc1cc(-c2cnc(Nc3cnn([C@H]4CCN(CCN5CCN(c6ccc(C7CCC(=O)NC7=O)cc6)C[C@H]5C)[C@@H](C)C4)c3)c3nccn23)c(F)cc1F (stereo partly drawn) [Compound 35, 3-(4-((R)-4-(2-((2S,4S)-4-(4-((5-(2,4-difluoro-5-methylphenyl)imdazo [1,2-a]pyrazin-8-yl)amino)-1H-pyrazol-1-yl)-2-methylpiperidin-1-yl)ethyl)-3-methylpiperazin-1-yl)phenyl) piperidine-2,6-dione]
2.8 nM | Cc1cc(-c2cnc(Nc3cnn([C@H]4CC[C@@H](CN5CCN(c6ccc(C7CCC(=O)NC7=O)cc6)CC5)CC4)c3)c3nccn23)c(F)cc1F (relative stereo) [Compound 71, 3-(4-(4-(((cis)-4-(4-((5-(2,4-difluoro-5-methylphenyl)imidazo[1,2-a]pyrazin-8-yl)amino)-1H-pyrazol-1-yl)cyclohexyl)methyl)piperazin-1-yl)phenyl) piperidine-2,6-dione]
2 nM | Cc1cc(-c2cnc(Nc3cnn(C4CCN(CCN5CCN(c6ccc([C@@]7(C)CCC(=O)NC7=O)cc6)CC5)CC4)c3)c3nccn23)c(F)cc1F [Compound 77, (R)-3-(4-(4-(2-(4-(4-((5-(2,4-difluoro-5-methylphenyl)imdazo [1,2-a]pyrazin-8-yl)amino)-1H-pyrazol-1-yl)piperidin-1-yl)ethyl)piperazin-1-yl)phenyl)-3-methylpiperidine-2,6-dione]
1.7 nM | Cc1cc(-c2cnc(Nc3cnn(C4CCN(CCN5CCN(c6ccc([C@]7(C)CCC(=O)NC7=O)cc6)CC5)CC4)c3)c3nccn23)c(F)cc1F [Compound 76, (S)-3-(4-(4-(2-(4-(4-((5-(2,4-difluoro-5-methylphenyl)imdazo [1,2-a]pyrazin-8-yl)amino)-1H-pyrazol-1-yl)piperidin-1-yl)ethyl)piperazin-1-yl)phenyl)-3-methylpiperidine-2,6-dione]
